# Like-named read-outs stand apart in the source and are kept apart here.
# Tested on: subjects with PAD
# Protocol: Supine vital signs were measured at the Screening Visit. The subject rested in a supine position for a minimum of 3 minutes prior to obtaining vital sign measurements. Vital signs included BP and pulse rate. Postural vital signs, including both supine and standing measurements of blood pressure and pulse rate, were recorded at all study visits following the first dose of IP administration. Measurements were performed as follows: (1) the subject rested in a supine position for a minimum of 3 minutes, (2) vital signs (BP and pulse rate) were measured while the subject was supine, (3) the subject assumed a standing position for a minimum of 5 minutes, and (4) vital signs (BP and pulse rate) were measured while the subject was standing.
# [1] = 40-mg group, Screening (baseline)
# [2] = 40-mg group, Visit 7 (Day 71, dose doubled)
# [3] = 40-mg group, Visit 8 (6 days after dose doubling)
# [4] = 80-mg group, Screening (baseline)
# [5] = 80-mg group, Visit 7 (Day 71, dose doubled)
# [6] = 80-mg group, Visit 8 (6 days after dose doubling)
smiles,measurement,setting,value
O=NO [sodium nitrite],"Blood Pressure diastolic, Supine (Mean)",[1],75.8
same,"Blood Pressure systolic, Supine (Mean)",[1],136.8
same,"Pulse, Supine (Mean)",[1],71.4
same,"Blood Pressure diastolic, Standing (Mean)","40-mg group, Visit 1 (Day 0)",73.1
same,"Blood Pressure diastolic, Supine (Mean)","40-mg group, Visit 1 (Day 0)",72.3
same,"Blood Pressure systolic, Standing (Mean)","40-mg group, Visit 1 (Day 0)",129.5
same,"Blood Pressure systolic, Supine (Mean)","40-mg group, Visit 1 (Day 0)",129.7
same,"Diastolic BP, Orthostatic Changes","40-mg group, Visit 1 (Day 0)",0.8
same,"Pulse, Orthostatic Changes","40-mg group, Visit 1 (Day 0)",1.8
same,"Pulse, Standing (Mean)","40-mg group, Visit 1 (Day 0)",75.8
same,"Pulse, Supine (Mean)","40-mg group, Visit 1 (Day 0)",74.1
same,"Systolic BP, Orthostatic Changes","40-mg group, Visit 1 (Day 0)",−0.3
same,"Blood Pressure diastolic, Standing (Mean)","40-mg group, Visit 2 (Day 1)",72.6
same,"Blood Pressure diastolic, Supine (Mean)","40-mg group, Visit 2 (Day 1)",70.5
same,"Blood Pressure systolic, Standing (Mean)","40-mg group, Visit 2 (Day 1)",128.3
same,"Blood Pressure systolic, Supine (Mean)","40-mg group, Visit 2 (Day 1)",128.0
same,"Diastolic BP, Orthostatic Changes","40-mg group, Visit 2 (Day 1)",2.1
same,"Pulse, Orthostatic Changes","40-mg group, Visit 2 (Day 1)",4.5
same,"Pulse, Standing (Mean)","40-mg group, Visit 2 (Day 1)",78.6
same,"Pulse, Supine (Mean)","40-mg group, Visit 2 (Day 1)",74.1
same,"Systolic BP, Orthostatic Changes","40-mg group, Visit 2 (Day 1)",0.3
same,"Blood Pressure diastolic, Standing (Mean)","40-mg group, Visit 3 (Day 4)",73.1
same,"Blood Pressure diastolic, Supine (Mean)","40-mg group, Visit 3 (Day 4)",72.5
same,"Blood Pressure systolic, Standing (Mean)","40-mg group, Visit 3 (Day 4)",129.4
same,"Blood Pressure systolic, Supine (Mean)","40-mg group, Visit 3 (Day 4)",129.8
same,"Diastolic BP, Orthostatic Changes","40-mg group, Visit 3 (Day 4)",0.6
same,"Pulse, Orthostatic Changes","40-mg group, Visit 3 (Day 4)",2.0
same,"Pulse, Standing (Mean)","40-mg group, Visit 3 (Day 4)",76.7
same,"Pulse, Supine (Mean)","40-mg group, Visit 3 (Day 4)",74.7
same,"Systolic BP, Orthostatic Changes","40-mg group, Visit 3 (Day 4)",−0.4
same,"Blood Pressure diastolic, Standing (Mean)","40-mg group, Visit 4 (Day 14)",71.0
same,"Blood Pressure diastolic, Supine (Mean)","40-mg group, Visit 4 (Day 14)",71.1
same,"Blood Pressure systolic, Standing (Mean)","40-mg group, Visit 4 (Day 14)",124.9
same,"Blood Pressure systolic, Supine (Mean)","40-mg group, Visit 4 (Day 14)",128.4
same,"Diastolic BP, Orthostatic Changes","40-mg group, Visit 4 (Day 14)",−0.1
same,"Pulse, Orthostatic Changes","40-mg group, Visit 4 (Day 14)",3.9
same,"Pulse, Standing (Mean)","40-mg group, Visit 4 (Day 14)",75.6
same,"Pulse, Supine (Mean)","40-mg group, Visit 4 (Day 14)",71.7
same,"Systolic BP, Orthostatic Changes","40-mg group, Visit 4 (Day 14)",−3.4
same,"Blood Pressure diastolic, Standing (Mean)","40-mg group, Visit 5 (Day 28)",71.6
same,"Blood Pressure diastolic, Supine (Mean)","40-mg group, Visit 5 (Day 28)",72.0
same,"Blood Pressure systolic, Standing (Mean)","40-mg group, Visit 5 (Day 28)",124.3
same,"Blood Pressure systolic, Supine (Mean)","40-mg group, Visit 5 (Day 28)",124.1
same,"Diastolic BP, Orthostatic Changes","40-mg group, Visit 5 (Day 28)",−0.4
same,"Pulse, Orthostatic Changes","40-mg group, Visit 5 (Day 28)",3.8
same,"Pulse, Standing (Mean)","40-mg group, Visit 5 (Day 28)",76.6
same,"Pulse, Supine (Mean)","40-mg group, Visit 5 (Day 28)",72.7
same,"Systolic BP, Orthostatic Changes","40-mg group, Visit 5 (Day 28)",0.3
same,"Blood Pressure diastolic, Standing (Mean)","40-mg group, Visit 6 (Day 70)",73.2
same,"Blood Pressure diastolic, Supine (Mean)","40-mg group, Visit 6 (Day 70)",73.7
same,"Blood Pressure systolic, Standing (Mean)","40-mg group, Visit 6 (Day 70)",127.6
same,"Blood Pressure systolic, Supine (Mean)","40-mg group, Visit 6 (Day 70)",127.3
same,"Diastolic BP, Orthostatic Changes","40-mg group, Visit 6 (Day 70)",−0.5
same,"Pulse, Orthostatic Changes","40-mg group, Visit 6 (Day 70)",3.5
same,"Pulse, Standing (Mean)","40-mg group, Visit 6 (Day 70)",73.9
same,"Pulse, Supine (Mean)","40-mg group, Visit 6 (Day 70)",7034
same,"Systolic BP, Orthostatic Changes","40-mg group, Visit 6 (Day 70)",0.3
same,"Blood Pressure diastolic, Standing (Mean)",[2],73.2
same,"Blood Pressure diastolic, Supine (Mean)",[2],71.3
same,"Blood Pressure systolic, Standing (Mean)",[2],122.2
same,"Blood Pressure systolic, Supine (Mean)",[2],126.7
same,"Diastolic BP, Orthostatic Changes",[2],1.9
same,"Pulse, Orthostatic Changes",[2],3.2
same,"Pulse, Standing (Mean)",[2],76.3
same,"Pulse, Supine (Mean)",[2],73.1
same,"Systolic BP, Orthostatic Changes",[2],−4.5
same,"Blood Pressure diastolic, Standing (Mean)",[3],68.7
same,"Blood Pressure diastolic, Supine (Mean)",[3],72.2
same,"Blood Pressure systolic, Standing (Mean)",[3],123.1
same,"Blood Pressure systolic, Supine (Mean)",[3],130.0
same,"Diastolic BP, Orthostatic Changes",[3],−3.5
same,"Pulse, Orthostatic Changes",[3],4.1
same,"Pulse, Standing (Mean)",[3],74.3
same,"Pulse, Supine (Mean)",[3],70.2
same,"Systolic BP, Orthostatic Changes",[3],−6.9
same,"Blood Pressure diastolic, Supine (Mean)",[4],69.4
same,"Blood Pressure systolic, Supine (Mean)",[4],132.4
same,"Pulse, Supine (Mean)",[4],63.9
same,"Blood Pressure diastolic, Standing (Mean)","80-mg group, Visit 1 (Day 0)",70.2
same,"Blood Pressure diastolic, Supine (Mean)","80-mg group, Visit 1 (Day 0)",68.4
same,"Blood Pressure systolic, Standing (Mean)","80-mg group, Visit 1 (Day 0)",125.4
same,"Blood Pressure systolic, Supine (Mean)","80-mg group, Visit 1 (Day 0)",129.8
same,"Diastolic BP, Orthostatic Changes","80-mg group, Visit 1 (Day 0)",1.8
same,"Pulse, Orthostatic Changes","80-mg group, Visit 1 (Day 0)",6.9
same,"Pulse, Standing (Mean)","80-mg group, Visit 1 (Day 0)",72.6
same,"Pulse, Supine (Mean)","80-mg group, Visit 1 (Day 0)",65.6
same,"Systolic BP, Orthostatic Changes","80-mg group, Visit 1 (Day 0)",−4.4
same,"Blood Pressure diastolic, Standing (Mean)","80-mg group, Visit 2 (Day 1)",71.9
same,"Blood Pressure diastolic, Supine (Mean)","80-mg group, Visit 2 (Day 1)",66.7
same,"Blood Pressure systolic, Standing (Mean)","80-mg group, Visit 2 (Day 1)",123.1
same,"Blood Pressure systolic, Supine (Mean)","80-mg group, Visit 2 (Day 1)",122.8
same,"Diastolic BP, Orthostatic Changes","80-mg group, Visit 2 (Day 1)",5.2
same,"Pulse, Orthostatic Changes","80-mg group, Visit 2 (Day 1)",7.3
same,"Pulse, Standing (Mean)","80-mg group, Visit 2 (Day 1)",72.3
same,"Pulse, Supine (Mean)","80-mg group, Visit 2 (Day 1)",65.1
same,"Systolic BP, Orthostatic Changes","80-mg group, Visit 2 (Day 1)",0.3
same,"Blood Pressure diastolic, Standing (Mean)","80-mg group, Visit 3 (Day 4)",69.2
same,"Blood Pressure diastolic, Supine (Mean)","80-mg group, Visit 3 (Day 4)",66.7
same,"Blood Pressure systolic, Standing (Mean)","80-mg group, Visit 3 (Day 4)",124.8
same,"Blood Pressure systolic, Supine (Mean)","80-mg group, Visit 3 (Day 4)",127.1
same,"Diastolic BP, Orthostatic Changes","80-mg group, Visit 3 (Day 4)",2.5
same,"Pulse, Orthostatic Changes","80-mg group, Visit 3 (Day 4)",6.2
same,"Pulse, Standing (Mean)","80-mg group, Visit 3 (Day 4)",72.9
same,"Pulse, Supine (Mean)","80-mg group, Visit 3 (Day 4)",66.7
same,"Systolic BP, Orthostatic Changes","80-mg group, Visit 3 (Day 4)",−2.3
same,"Blood Pressure diastolic, Standing (Mean)","80-mg group, Visit 4 (Day 14)",68.8
same,"Blood Pressure diastolic, Supine (Mean)","80-mg group, Visit 4 (Day 14)",65.2
same,"Blood Pressure systolic, Standing (Mean)","80-mg group, Visit 4 (Day 14)",123.7
same,"Blood Pressure systolic, Supine (Mean)","80-mg group, Visit 4 (Day 14)",125.1
same,"Diastolic BP, Orthostatic Changes","80-mg group, Visit 4 (Day 14)",3.5
same,"Pulse, Orthostatic Changes","80-mg group, Visit 4 (Day 14)",7.9
same,"Pulse, Standing (Mean)","80-mg group, Visit 4 (Day 14)",72.6
same,"Pulse, Supine (Mean)","80-mg group, Visit 4 (Day 14)",64.6
same,"Systolic BP, Orthostatic Changes","80-mg group, Visit 4 (Day 14)",−1.4
same,"Blood Pressure diastolic, Standing (Mean)","80-mg group, Visit 5 (Day 28)",71.9
same,"Blood Pressure diastolic, Supine (Mean)","80-mg group, Visit 5 (Day 28)",68.9
same,"Blood Pressure systolic, Standing (Mean)","80-mg group, Visit 5 (Day 28)",119.5
same,"Blood Pressure systolic, Supine (Mean)","80-mg group, Visit 5 (Day 28)",124.6
same,"Diastolic BP, Orthostatic Changes","80-mg group, Visit 5 (Day 28)",3.0
same,"Pulse, Orthostatic Changes","80-mg group, Visit 5 (Day 28)",3.8
same,"Pulse, Standing (Mean)","80-mg group, Visit 5 (Day 28)",72.5
same,"Pulse, Supine (Mean)","80-mg group, Visit 5 (Day 28)",68.7
same,"Systolic BP, Orthostatic Changes","80-mg group, Visit 5 (Day 28)",−5.2
same,"Blood Pressure diastolic, Standing (Mean)","80-mg group, Visit 6 (Day 70)",70.0
same,"Blood Pressure diastolic, Supine (Mean)","80-mg group, Visit 6 (Day 70)",66.2
same,"Blood Pressure systolic, Standing (Mean)","80-mg group, Visit 6 (Day 70)",124.8
same,"Blood Pressure systolic, Supine (Mean)","80-mg group, Visit 6 (Day 70)",123.1
same,"Diastolic BP, Orthostatic Changes","80-mg group, Visit 6 (Day 70)",3.8
same,"Pulse, Orthostatic Changes","80-mg group, Visit 6 (Day 70)",2.1
same,"Pulse, Standing (Mean)","80-mg group, Visit 6 (Day 70)",67.6
same,"Pulse, Supine (Mean)","80-mg group, Visit 6 (Day 70)",65.5
same,"Systolic BP, Orthostatic Changes","80-mg group, Visit 6 (Day 70)",1.6
same,"Blood Pressure diastolic, Standing (Mean)",[5],67.1
same,"Blood Pressure diastolic, Supine (Mean)",[5],64.4
same,"Blood Pressure systolic, Standing (Mean)",[5],123.3
same,"Blood Pressure systolic, Supine (Mean)",[5],118.4
same,"Diastolic BP, Orthostatic Changes",[5],2.7
same,"Pulse, Orthostatic Changes",[5],6.1
same,"Pulse, Standing (Mean)",[5],70.4
same,"Pulse, Supine (Mean)",[5],64.3
same,"Systolic BP, Orthostatic Changes",[5],4.8
same,"Blood Pressure diastolic, Standing (Mean)",[6],67.9
same,"Blood Pressure diastolic, Supine (Mean)",[6],66.9
same,"Blood Pressure systolic, Standing (Mean)",[6],117.7
same,"Blood Pressure systolic, Supine (Mean)",[6],120.7
same,"Diastolic BP, Orthostatic Changes",[6],1.0
same,"Pulse, Orthostatic Changes",[6],4.3
same,"Pulse, Standing (Mean)",[6],72.6
same,"Pulse, Supine (Mean)",[6],68.3
same,"Systolic BP, Orthostatic Changes",[6],−3.0
same,Hypotensive effects,"treated groups, 40 and 80 mg BID",Dose dependent hypotensive affects were observed
